Source: BigSolDB 2.1

N#CC(c1ccc(Cl)cc1)c1c(Cl)cc(-n2ncc(=O)[nH]c2=O)cc1Cl (stereo not given)
solubility (mole fraction) (in DMF, 283.15 K): 0.0254
solubility (mole fraction) (in DMF, 288.15 K): 0.028
solubility (mole fraction) (in DMF, 293.15 K): 0.0309
solubility (mole fraction) (in DMF, 298.15 K): 0.0339
solubility (mole fraction) (in DMF, 303.15 K): 0.0372
solubility (mole fraction) (in DMF, 308.15 K): 0.0407
solubility (mole fraction) (in DMF, 313.15 K): 0.0444
solubility (mole fraction) (in DMF, 318.15 K): 0.0484
solubility (mole fraction) (in DMF, 323.15 K): 0.0527
solubility (mole fraction) (in acetone, 283.15 K): 0.012
solubility (mole fraction) (in acetone, 288.15 K): 0.014
solubility (mole fraction) (in acetone, 293.15 K): 0.0162
solubility (mole fraction) (in acetone, 298.15 K): 0.0186
solubility (mole fraction) (in acetone, 303.15 K): 0.0215
solubility (mole fraction) (in acetone, 308.15 K): 0.0247
solubility (mole fraction) (in acetone, 313.15 K): 0.0281
solubility (mole fraction) (in acetone, 318.15 K): 0.032
solubility (mole fraction) (in acetone, 323.15 K): 0.0361
solubility (mole fraction) (in acetonitrile, 283.15 K): 0.00825
solubility (mole fraction) (in acetonitrile, 288.15 K): 0.00972
solubility (mole fraction) (in acetonitrile, 293.15 K): 0.0115
solubility (mole fraction) (in acetonitrile, 298.15 K): 0.0135
solubility (mole fraction) (in acetonitrile, 303.15 K): 0.0157
solubility (mole fraction) (in acetonitrile, 308.15 K): 0.0183
solubility (mole fraction) (in acetonitrile, 313.15 K): 0.0211
solubility (mole fraction) (in acetonitrile, 318.15 K): 0.0244
solubility (mole fraction) (in acetonitrile, 323.15 K): 0.0279
solubility (mole fraction) (in ethanol, 283.15 K): 0.00168
solubility (mole fraction) (in ethanol, 288.15 K): 0.00204
solubility (mole fraction) (in ethanol, 293.15 K): 0.00245
solubility (mole fraction) (in ethanol, 298.15 K): 0.00293
solubility (mole fraction) (in ethanol, 303.15 K): 0.00347
solubility (mole fraction) (in ethanol, 308.15 K): 0.00407
solubility (mole fraction) (in ethanol, 313.15 K): 0.00476
solubility (mole fraction) (in ethanol, 318.15 K): 0.00555
solubility (mole fraction) (in ethanol, 323.15 K): 0.00641
solubility (mole fraction) (in ethyl acetate, 283.15 K): 0.0052
solubility (mole fraction) (in ethyl acetate, 288.15 K): 0.00634
solubility (mole fraction) (in ethyl acetate, 293.15 K): 0.0077
solubility (mole fraction) (in ethyl acetate, 298.15 K): 0.00924
solubility (mole fraction) (in ethyl acetate, 303.15 K): 0.0111
solubility (mole fraction) (in ethyl acetate, 308.15 K): 0.0132
solubility (mole fraction) (in ethyl acetate, 313.15 K): 0.0157
solubility (mole fraction) (in ethyl acetate, 318.15 K): 0.0185
solubility (mole fraction) (in ethyl acetate, 323.15 K): 0.0217
solubility (mole fraction) (in isopropanol, 283.15 K): 0.000798
solubility (mole fraction) (in isopropanol, 288.15 K): 0.00102
solubility (mole fraction) (in isopropanol, 293.15 K): 0.00129
solubility (mole fraction) (in isopropanol, 298.15 K): 0.00163
solubility (mole fraction) (in isopropanol, 303.15 K): 0.00204
solubility (mole fraction) (in isopropanol, 308.15 K): 0.00251
solubility (mole fraction) (in isopropanol, 313.15 K): 0.00308
solubility (mole fraction) (in isopropanol, 318.15 K): 0.00374
solubility (mole fraction) (in isopropanol, 323.15 K): 0.00455
solubility (mole fraction) (in methanol, 283.15 K): 0.00233
solubility (mole fraction) (in methanol, 288.15 K): 0.0027
solubility (mole fraction) (in methanol, 293.15 K): 0.00316
solubility (mole fraction) (in methanol, 298.15 K): 0.00369
solubility (mole fraction) (in methanol, 303.15 K): 0.00426
solubility (mole fraction) (in methanol, 308.15 K): 0.00494
solubility (mole fraction) (in methanol, 313.15 K): 0.00566
solubility (mole fraction) (in methanol, 318.15 K): 0.00646
solubility (mole fraction) (in methanol, 323.15 K): 0.00737
solubility (mole fraction) (in n-butanol, 283.15 K): 0.000481
solubility (mole fraction) (in n-butanol, 288.15 K): 0.000639
solubility (mole fraction) (in n-butanol, 293.15 K): 0.000851
solubility (mole fraction) (in n-butanol, 298.15 K): 0.0011
solubility (mole fraction) (in n-butanol, 303.15 K): 0.00142
solubility (mole fraction) (in n-butanol, 308.15 K): 0.00181
solubility (mole fraction) (in n-butanol, 313.15 K): 0.00229
solubility (mole fraction) (in n-butanol, 318.15 K): 0.00288
solubility (mole fraction) (in n-butanol, 323.15 K): 0.0036
solubility (mole fraction) (in n-propanol, 283.15 K): 0.00118
solubility (mole fraction) (in n-propanol, 288.15 K): 0.00146
solubility (mole fraction) (in n-propanol, 293.15 K): 0.00179
solubility (mole fraction) (in n-propanol, 298.15 K): 0.00221
solubility (mole fraction) (in n-propanol, 303.15 K): 0.00268
solubility (mole fraction) (in n-propanol, 308.15 K): 0.00321
solubility (mole fraction) (in n-propanol, 313.15 K): 0.00383
solubility (mole fraction) (in n-propanol, 318.15 K): 0.0046
solubility (mole fraction) (in n-propanol, 323.15 K): 0.00543
solubility (mole fraction) (in toluene, 283.15 K): 0.000263
solubility (mole fraction) (in toluene, 288.15 K): 0.000371
solubility (mole fraction) (in toluene, 293.15 K): 0.00052
solubility (mole fraction) (in toluene, 298.15 K): 0.000692
solubility (mole fraction) (in toluene, 303.15 K): 0.000923
solubility (mole fraction) (in toluene, 308.15 K): 0.00123
solubility (mole fraction) (in toluene, 313.15 K): 0.00162
solubility (mole fraction) (in toluene, 318.15 K): 0.00211
solubility (mole fraction) (in toluene, 323.15 K): 0.0027
